Laboratory results taken from PMC5735376, “Dual Level Statistical Investigation of Equilibrium Solubility in Simulated Fasted and Fed Intestinal Fluid” (Molecular Pharmaceutics, 2017).
Like-named read-outs stand apart in the source and are kept apart here.

Assays:
[1] = parameters: method as in ref 13, Figure 2; details: fasted, published; Figure 2; cited from earlier work
[2] = Equilibrium solubility in simulated intestinal fluid, dual level DoE, combined fasted and fed arm; type: physicochemical; details: for significance of sodium oleate for solubility / significant two way factor interactions on solubility: combined arm; for significance of sodium oleate for solubility: Figure 4, significance ±2, positive solubility impact; for significant DoE factors influencing solubility: combined arm (seven possible factors per drug), significance ±2; for significant two way factor interactions on solubility: eight two way interactions, Figure 4
Text: (§1) For each media parameter (bile salt, lecithin, sodium oleate, monoglyceride, cholesterol, pH and BS: PL ratio) lower and upper limit concentration values for fasted and fed states were defined, Table 1. Using Minitab 17.2.1 and a custom experimental design, a 1/16 of the full factorial DoE with the seven factors and two levels (lower and upper limits) was constructed (8 experiments around the upper and lower levels plus two center points) separately for the fasted and the fed states. These two tables were then applied as an input for a factorial custom design of experiment which combined the fasted and fed using all 20 data points to provide an overall analysis. The study therefore consists of three arms, two smaller (10 data point) fasted and fed arms, which are then merged into a larger (20 data point) combined arm.
(§2) When designing and analyzing the DoE, only a factor’s main effects and 2 way interactions have been considered and 3 way interactions or more were not included. For each DoE the magnitude for each factor’s effect on equilibrium solubility was determined by the standardized effect value for all of the individual factors and the significant 2-way interactions. This value was used to articulate whether these factors are increasing or decreasing drug solubility.
(§3) The solution was prepared by the addition of an excess amount (above the estimated solubility) of solid for each compound investigated to a centrifuge tube (15 mL Corning Centristar cap, polypropylene RNase/DNase free, nonpyrogenic) followed by the addition of each component of the simulated intestinal fluid media according to the run order generated by the DoE. After all of the media components were added, pH was adjusted to 5, 6, or 7 according to the run order using 0.1 M HCl or 0.1 M KOH and tubes were capped and placed on an orbital shaker (OS 5 basic Yellowline, IKA, Germany) for 1 h after which the pH was readjusted if required. The 20 different tubes were then shaken in a tube rotator for 24 h at 40 rpm at 37 °C to simulate intestinal fluid conditions. After 24 h, a 1 mL amount was taken from each of the 20 tubes and transferred to a 1.5 mL Eppendorf tube then centrifuged at 15 000 rpm for 5 min. Following centrifugation 0.5 mL of the supernatant solution was transferred to an HPLC vial to analyze drug solubility using HPLC (Table 4).

[3] = Equilibrium solubility in simulated intestinal fluid, dual level DoE, fed arm; type: physicochemical; details: fed, current study (Figure 3)
Text: as §1, §2, §3

[4] = parameters: method as in ref 14, Figure 2; details: fed, published; Figure 2; cited from earlier work
[5] = cited from earlier work
[6] = Statistical comparison of equilibrium solubility data sets (Mann-Whitney test / two-sample t-test); type: physicochemical; details: for statistical comparison of fasted against fed equilibrium solubility: current dual level DoE, where significant, fasted solubility lower than fed; for statistical comparison of dual level fasted with published fasted equilibrium solubility: current fasted arm vs published fasted DoE; for statistical comparison of dual level fed with published fed equilibrium solubility: current fed arm vs published fed DoE
Text: The Kolmogorov normality test was used in Minitab to assess the normality distribution of each data set. A Mann–Whitney test was used to evaluate the median between two data sets (not normally distributed) and the two-sample t-test was used to evaluate the mean of two data sets (normally distributed).

[7] = Equilibrium solubility in simulated intestinal fluid, dual level DoE, fasted arm; type: physicochemical; details: for significant DoE factors influencing solubility: fasted and fed study arms together (14 possible values per drug), significance ±4; for statistical significance of DoE factor BS:PL on equilibrium solubility / statistical significance of DoE factor bile salt on equilibrium solubility / statistical significance of DoE factor cholesterol on equilibrium solubility / statistical significance of DoE factor lecithin on equilibrium solubility / statistical significance of DoE factor monoglyceride on equilibrium solubility / statistical significance of DoE factor pH on equilibrium solubility / statistical significance of DoE factor sodium oleate on equilibrium solubility: fasted, current study (Figure 3)
Text: as §1, §2, §3

Structure (SMILES): CN1CC(=O)N2[C@H](c3ccc4c(c3)OCO4)c3[nH]c4ccccc4c3C[C@@H]2C1=O [tadalafil]
- statistical significance of DoE factor bile salt on equilibrium solubility [1]: S ^d ^g
- statistical significance of DoE factor lecithin on equilibrium solubility [1]: S ^d ^g
- statistical significance of DoE factor pH on equilibrium solubility [1]: S ^d ^g
- statistical significance of DoE factor sodium oleate on equilibrium solubility [1]: S ^d ^g
- significance of sodium oleate for solubility [2]: significant
- statistical significance of DoE factor BS:PL on equilibrium solubility [3]: NS ^e
- statistical significance of DoE factor bile salt on equilibrium solubility [3]: NS ^e ^g
- statistical significance of DoE factor cholesterol on equilibrium solubility [3]: NS ^e
- statistical significance of DoE factor lecithin on equilibrium solubility [3]: NS ^e
- statistical significance of DoE factor monoglyceride on equilibrium solubility [3]: NS ^e
- statistical significance of DoE factor pH on equilibrium solubility [3]: NS ^e
- statistical significance of DoE factor sodium oleate on equilibrium solubility [3]: NS ^e ^g
- statistical significance of DoE factor bile salt on equilibrium solubility [4]: S ^d ^g
- statistical significance of DoE factor lecithin on equilibrium solubility [4]: NS ^e
- statistical significance of DoE factor monoglyceride on equilibrium solubility [4]: NS ^e
- statistical significance of DoE factor pH on equilibrium solubility [4]: NS ^e
- statistical significance of DoE factor sodium oleate on equilibrium solubility [4]: S ^d ^g
- pKa ([5]; reported): 15
- statistical comparison of fasted against fed equilibrium solubility [6]: significant difference
- statistical comparison of dual level fasted with published fasted equilibrium solubility [6]: significantly different
- significant DoE factors influencing solubility [7]: no significant factors
- statistical significance of DoE factor BS:PL on equilibrium solubility [7]: NS ^e
- statistical significance of DoE factor bile salt on equilibrium solubility [7]: NS ^e ^g
- statistical significance of DoE factor cholesterol on equilibrium solubility [7]: NS ^e
- statistical significance of DoE factor lecithin on equilibrium solubility [7]: NS ^e ^g
- statistical significance of DoE factor monoglyceride on equilibrium solubility [7]: NS ^e
- statistical significance of DoE factor pH on equilibrium solubility [7]: NS ^e ^g
- statistical significance of DoE factor sodium oleate on equilibrium solubility [7]: NS ^e ^g

Structure (SMILES): O=C1NC(=O)C(c2ccccc2)(c2ccccc2)N1 [phenytoin]
- statistical significance of DoE factor bile salt on equilibrium solubility [1]: S ^d ^g
- statistical significance of DoE factor lecithin on equilibrium solubility [1]: S ^d ^g
- statistical significance of DoE factor pH on equilibrium solubility [1]: S ^d
- statistical significance of DoE factor sodium oleate on equilibrium solubility [1]: S ^d
- variability of equilibrium solubility ([2]; across DoE media, fasted or fed arm, Figures 1 and 2): low solubility variability
- significant DoE factors influencing solubility [2]: no significant factors
- significant two way factor interactions on solubility [2]: significant interactions
- statistical significance of DoE factor BS:PL on equilibrium solubility [3]: NS ^e
- statistical significance of DoE factor bile salt on equilibrium solubility [3]: NS ^e ^g
- statistical significance of DoE factor cholesterol on equilibrium solubility [3]: NS ^e
- statistical significance of DoE factor lecithin on equilibrium solubility [3]: NS ^e
- statistical significance of DoE factor monoglyceride on equilibrium solubility [3]: NS ^e ^g
- statistical significance of DoE factor pH on equilibrium solubility [3]: NS ^e ^g
- statistical significance of DoE factor sodium oleate on equilibrium solubility [3]: NS ^e ^g
- statistical significance of DoE factor bile salt on equilibrium solubility [4]: S ^d ^g
- statistical significance of DoE factor lecithin on equilibrium solubility [4]: NS ^e
- statistical significance of DoE factor monoglyceride on equilibrium solubility [4]: S ^d ^g
- statistical significance of DoE factor pH on equilibrium solubility [4]: S ^d ^g
- statistical significance of DoE factor sodium oleate on equilibrium solubility [4]: S ^d ^g
- pKa ([5]; no reference given): 8.1
- statistical comparison of fasted against fed equilibrium solubility [6]: no statistically significant difference
- statistical comparison of dual level fasted with published fasted equilibrium solubility [6]: significantly different
- statistical comparison of dual level fed with published fed equilibrium solubility [6]: significantly different
- direction of pH effect on solubility (standardized effect) ([7]; fasted and fed study arms, Figure 3): negative effect
- direction of cholesterol effect on solubility (standardized effect) ([7]; fasted arm, Figure 3): significant negative solubility effect
- statistical significance of DoE factor BS:PL on equilibrium solubility [7]: S ^d
- statistical significance of DoE factor bile salt on equilibrium solubility [7]: NS ^e ^g
- statistical significance of DoE factor cholesterol on equilibrium solubility [7]: S ^d
- statistical significance of DoE factor lecithin on equilibrium solubility [7]: NS ^e ^g
- statistical significance of DoE factor monoglyceride on equilibrium solubility [7]: NS ^e
- statistical significance of DoE factor pH on equilibrium solubility [7]: S ^d
- statistical significance of DoE factor sodium oleate on equilibrium solubility [7]: S ^d

Structure (SMILES): COc1ccccc1OCCNCC(O)COc1cccc2[nH]c3ccccc3c12 (stereo not shown) [carvedilol]
- statistical significance of DoE factor bile salt on equilibrium solubility [1]: S ^d ^g
- statistical significance of DoE factor lecithin on equilibrium solubility [1]: S ^d ^g
- statistical significance of DoE factor pH on equilibrium solubility [1]: S ^d ^g
- statistical significance of DoE factor sodium oleate on equilibrium solubility [1]: S ^d ^g
- significance of sodium oleate for solubility [2]: significant
- statistical significance of DoE factor BS:PL on equilibrium solubility [3]: NS ^e
- statistical significance of DoE factor bile salt on equilibrium solubility [3]: NS ^e ^g
- statistical significance of DoE factor cholesterol on equilibrium solubility [3]: NS ^e
- statistical significance of DoE factor lecithin on equilibrium solubility [3]: NS ^e
- statistical significance of DoE factor monoglyceride on equilibrium solubility [3]: NS ^e ^g
- statistical significance of DoE factor pH on equilibrium solubility [3]: NS ^e ^g
- statistical significance of DoE factor sodium oleate on equilibrium solubility [3]: NS ^e ^g
- statistical significance of DoE factor bile salt on equilibrium solubility [4]: S ^d ^g
- statistical significance of DoE factor lecithin on equilibrium solubility [4]: NS ^e
- statistical significance of DoE factor monoglyceride on equilibrium solubility [4]: S ^d ^g
- statistical significance of DoE factor pH on equilibrium solubility [4]: S ^d ^g
- statistical significance of DoE factor sodium oleate on equilibrium solubility [4]: S ^d ^g
- statistical comparison of fasted against fed equilibrium solubility [6]: significant difference
- statistical comparison of dual level fed with published fed equilibrium solubility [6]: significantly different
- significant DoE factors influencing solubility [7]: no significant factors
- statistical significance of DoE factor BS:PL on equilibrium solubility [7]: NS ^e
- statistical significance of DoE factor bile salt on equilibrium solubility [7]: NS ^e ^g
- statistical significance of DoE factor cholesterol on equilibrium solubility [7]: NS ^e
- statistical significance of DoE factor lecithin on equilibrium solubility [7]: NS ^e ^g
- statistical significance of DoE factor monoglyceride on equilibrium solubility [7]: NS ^e
- statistical significance of DoE factor pH on equilibrium solubility [7]: NS ^e ^g
- statistical significance of DoE factor sodium oleate on equilibrium solubility [7]: NS ^e ^g

Structure (SMILES): COc1cc(C(=O)NS(=O)(=O)c2ccccc2C)ccc1Cc1cn(C)c2ccc(NC(=O)OC3CCCC3)cc12 [zafirlukast]
- statistical significance of DoE factor bile salt on equilibrium solubility [1]: S ^d ^g
- statistical significance of DoE factor lecithin on equilibrium solubility [1]: S ^d ^g
- statistical significance of DoE factor pH on equilibrium solubility [1]: S ^d
- statistical significance of DoE factor sodium oleate on equilibrium solubility [1]: S ^d ^g
- significant DoE factors influencing solubility [2]: no significant factors
- significant two way factor interactions on solubility [2]: significant interactions
- statistical significance of DoE factor BS:PL on equilibrium solubility [3]: NS ^e
- statistical significance of DoE factor bile salt on equilibrium solubility [3]: NS ^e ^g
- statistical significance of DoE factor cholesterol on equilibrium solubility [3]: NS ^e
- statistical significance of DoE factor lecithin on equilibrium solubility [3]: NS ^e
- statistical significance of DoE factor monoglyceride on equilibrium solubility [3]: NS ^e
- statistical significance of DoE factor pH on equilibrium solubility [3]: NS ^e ^g
- statistical significance of DoE factor sodium oleate on equilibrium solubility [3]: NS ^e
- statistical significance of DoE factor bile salt on equilibrium solubility [4]: S ^d ^g
- statistical significance of DoE factor lecithin on equilibrium solubility [4]: NS ^e
- statistical significance of DoE factor monoglyceride on equilibrium solubility [4]: NS ^e
- statistical significance of DoE factor pH on equilibrium solubility [4]: S ^d ^g
- pKa ([5]; reported): 4
- statistical comparison of fasted against fed equilibrium solubility [6]: significant difference
- direction of cholesterol effect on solubility (standardized effect) ([7]; fasted arm, Figure 3): positive effect
- direction of monoglyceride effect on solubility (standardized effect) ([7]; fasted arm, Figure 3): negative effect
- statistical significance of DoE factor BS:PL on equilibrium solubility [7]: NS ^e
- statistical significance of DoE factor bile salt on equilibrium solubility [7]: NS ^e ^g
- statistical significance of DoE factor cholesterol on equilibrium solubility [7]: S ^d
- statistical significance of DoE factor lecithin on equilibrium solubility [7]: NS ^e ^g
- statistical significance of DoE factor monoglyceride on equilibrium solubility [7]: S ^d
- statistical significance of DoE factor pH on equilibrium solubility [7]: S ^d
- statistical significance of DoE factor sodium oleate on equilibrium solubility [7]: NS ^e ^g
